Assays:
human AChE = human AChE (Homo sapiens, UniProt P22303); assay: Inhibition of AChE; assay type: biochemical; conditions: for inhibition at 10 µM: read-out: AChE Inhibition at 10 µM [%]
human H3R = human H3R (Homo sapiens, UniProt Q9Y5N1); assay: Human H3R radioligand displacement assay; conditions: for inhibition at 1 µM: read-out: hH3R Inhibition at 1 µM [%] ±SD (n)
human H1R = human H1R (Homo sapiens, UniProt P35367); assay: Human H1R radioligand displacement assay; assay type: binding; conditions: for inhibition at 10 µM: read-out: hH1R Inhibition at 10 µM [%] ±SD (n); for inhibition at 1 µM: read-out: hH1R Inhibition at 1 µM [%] (n)
human H4R = human H4R (Homo sapiens, UniProt Q9H3N8); assay: Human H4R radioligand displacement assay; conditions: read-out: hH4R Inhibition at 10 µM [%] (n)
human H4R, sequence (Q9H3N8 whole entry): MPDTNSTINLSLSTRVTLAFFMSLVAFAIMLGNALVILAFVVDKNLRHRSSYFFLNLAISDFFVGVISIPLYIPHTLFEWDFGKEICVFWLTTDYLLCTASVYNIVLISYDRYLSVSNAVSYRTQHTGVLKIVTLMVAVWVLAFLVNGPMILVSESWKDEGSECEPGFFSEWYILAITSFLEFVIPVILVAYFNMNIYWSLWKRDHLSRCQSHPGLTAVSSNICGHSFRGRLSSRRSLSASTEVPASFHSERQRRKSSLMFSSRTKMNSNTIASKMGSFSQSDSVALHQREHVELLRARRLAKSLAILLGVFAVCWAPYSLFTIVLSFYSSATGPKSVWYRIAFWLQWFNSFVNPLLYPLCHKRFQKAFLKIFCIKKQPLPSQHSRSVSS

human H1R, sequence (P35367 whole entry): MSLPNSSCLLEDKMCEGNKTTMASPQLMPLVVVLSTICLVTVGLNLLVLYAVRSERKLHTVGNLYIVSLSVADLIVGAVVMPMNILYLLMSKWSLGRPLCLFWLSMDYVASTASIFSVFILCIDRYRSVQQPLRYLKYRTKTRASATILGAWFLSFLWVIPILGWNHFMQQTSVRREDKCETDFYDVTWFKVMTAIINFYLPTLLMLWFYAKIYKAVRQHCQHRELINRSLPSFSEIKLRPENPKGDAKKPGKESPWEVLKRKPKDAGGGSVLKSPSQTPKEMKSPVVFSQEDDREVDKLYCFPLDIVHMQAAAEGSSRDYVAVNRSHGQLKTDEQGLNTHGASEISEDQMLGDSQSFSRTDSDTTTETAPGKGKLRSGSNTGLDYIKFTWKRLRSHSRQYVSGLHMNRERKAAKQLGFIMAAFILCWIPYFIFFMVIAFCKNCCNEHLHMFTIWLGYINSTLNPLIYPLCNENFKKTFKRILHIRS
human AChE, sequence (P22303 32-614): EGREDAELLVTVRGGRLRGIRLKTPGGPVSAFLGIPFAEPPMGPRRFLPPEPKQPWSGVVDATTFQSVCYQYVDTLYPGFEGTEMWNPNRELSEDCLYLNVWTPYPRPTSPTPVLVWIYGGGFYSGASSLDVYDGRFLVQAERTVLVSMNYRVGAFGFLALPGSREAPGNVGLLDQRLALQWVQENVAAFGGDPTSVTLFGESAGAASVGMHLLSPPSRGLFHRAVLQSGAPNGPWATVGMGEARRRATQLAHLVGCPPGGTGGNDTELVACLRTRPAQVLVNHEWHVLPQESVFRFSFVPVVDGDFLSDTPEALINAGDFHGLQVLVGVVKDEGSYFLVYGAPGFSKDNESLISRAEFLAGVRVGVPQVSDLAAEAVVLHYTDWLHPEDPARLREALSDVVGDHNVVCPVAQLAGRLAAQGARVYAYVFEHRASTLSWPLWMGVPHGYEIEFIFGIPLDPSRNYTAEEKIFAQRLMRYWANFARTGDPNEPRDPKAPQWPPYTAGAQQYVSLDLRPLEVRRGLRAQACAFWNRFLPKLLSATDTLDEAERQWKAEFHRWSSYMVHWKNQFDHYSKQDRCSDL
human H3R, sequence (Q9Y5N1 whole entry): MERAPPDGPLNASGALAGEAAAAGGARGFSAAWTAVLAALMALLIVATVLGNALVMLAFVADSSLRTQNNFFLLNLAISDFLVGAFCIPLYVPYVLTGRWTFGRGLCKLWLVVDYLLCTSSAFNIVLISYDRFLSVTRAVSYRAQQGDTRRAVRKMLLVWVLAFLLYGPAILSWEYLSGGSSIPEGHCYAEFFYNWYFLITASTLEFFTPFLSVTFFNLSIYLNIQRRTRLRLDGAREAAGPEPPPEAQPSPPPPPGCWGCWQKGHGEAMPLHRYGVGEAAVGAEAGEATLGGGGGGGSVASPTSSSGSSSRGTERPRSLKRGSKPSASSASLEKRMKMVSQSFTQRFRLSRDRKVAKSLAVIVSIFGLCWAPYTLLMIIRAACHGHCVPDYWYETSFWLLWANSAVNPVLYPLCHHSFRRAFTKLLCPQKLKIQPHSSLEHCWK

Structure (SMILES)	IC50 (human AChE) [µM]	inhibition at 10 µM (human AChE) [%]	inhibition at 1 µM (human H3R) [%]	inhibition at 10 µM (human H1R) [%]	inhibition at 10 µM (human H4R) [%]	Ki (human H3R) [µM]	inhibition at 1 µM (human H1R) [%]
CCOC(=O)c1nc2ccc(OCCN3CCOCC3)cc2s1 [Compound 1a, Ethyl 6-(2-morpholinoethoxy)benzo[d]thiazole-2-carboxylate]	> 10	7.64 ± 7.33	63.3 ± 4.2	< 0	39.2 ± 34.7	–	–
CCOC(=O)c1nc2ccc(OCCN3CCCCC3)cc2s1 [Compound 1b, Ethyl 6-(2-(piperidin-1-yl)ethoxy)benzo[d]thiazole-2-carboxylate]	> 10	9.25 ± 7.88	35.2 ± 14.4	< 0	61.7 ± 35.4	–	–
CCOC(=O)c1nc2ccc(OCCN3CCCC3)cc2s1 [Compound 1c, Ethyl 6-(2-(pyrrolidin-1-yl)ethoxy)benzo[d]thiazole-2-carboxylate]	7.63 ± 1.6	57.2 ± 5.41	50.2 ± 10.9	1 ± 9.7	54 ± 12.1	–	–
COC(=O)c1nc2ccc(OCCN3CCOCC3)cc2s1 [Compound 1d, Methyl 6-(2-morpholinoethoxy)benzo[d]thiazole-2-carboxylate]	> 10	5.52 ± 6.39	25.3 ± 5.4	11.2 ± 10.5	51.3 ± 18.2	–	–
COC(=O)c1nc2ccc(OCCN3CCCCC3)cc2s1 [Compound 1e, Methyl 6-(2-(piperidin-1-yl)ethoxy)benzo[d]thiazole-2-carboxylate]	2.92 ± 0.37	84 ± 4.25	54.2 ± 28.4	16.3 ± 41.7	–	–	–
COC(=O)c1nc2ccc(OCCCN[C@@H](Cc3ccc(O)cc3)C(=O)OC)cc2s1 [Compound 2a, Methyl (S)-6-(3-((3-(4-hydroxyphenyl)-1-methoxy-1-oxopropan-2-yl)amino)propoxy)benzo[d]thiazole-2-carboxylate]	> 10	< 0	54.8 ± 21.2	< 0	35.5 ± 32.1	–	–
O=C(c1nc2ccc(OCCN3CCCCC3)cc2s1)N1CCCCC1 [Compound 3a, Piperidin-1-yl-(6-(2-(piperidin-1-yl)ethoxy)benzo[d]thiazol-2-yl)methanone]	> 10	35.5 ± 13.4	68 ± 9.1	< 0	30.3 ± 24.9	> 1	–
O=C(NCC1CCCCC1)c1nc2ccc(OCCNCC3CCCCC3)cc2s1 [Compound 3c, N-(Cyclohexylmethyl)-6-(2-((cyclohexylmethyl)amino)ethoxy)benzo[d]thiazole-2-carboxamide]	> 10	< 0	31.5 ± 11.4	5.3 ± 14.2	52.8 ± 11.8	–	–
O=C(NC1CCCCCC1)c1nc2ccc(OCCCNC3CCCCCC3)cc2s1 [Compound 3e, N-Cycloheptyl-6-(3-(cycloheptylamino)propoxy)benzo[d]thiazole-2-carboxamide]	> 10	7.3 ± 2.31	35.7 ± 11.5	12.1 ± 18.3	53.5 ± 15.2	–	–
O=C(NCC1CCCCC1)c1nc2ccc(OCCCNCC3CCCCC3)cc2s1 [Compound 3f, N-(Cyclohexylmethyl)-6-(3-((cyclohexylmethyl)amino)propoxy)benzo[d]thiazole-2-carboxamide]	> 10	3.2 ± 3.69	46.3 ± 14.7	47.6 ± 12.9	60.8 ± 30.4	–	–
O=C(NC1CC1)c1nc2ccc(OCCCNC3CC3)cc2s1 [Compound 3g, N-Cyclopropyl-6-(3-(cyclopropylamino)propoxy)benzo[d]thiazole-2-carboxamide]	> 10	15.4 ± 11.2	27.7 ± 12.8	13.6 ± 10.7	30.2 ± 14.3	–	–
O=C(NC1CCCC1)c1nc2ccc(OCCCNC3CCCC3)cc2s1 [Compound 3i, N-Cyclopentyl-6-(3-(cyclopentylamino)propoxy)benzo[d]thiazole-2-carboxamide]	7.31 ± 1.59	59 ± 6.16	51.2 ± 8.7	35.5 ± 9.8	50.5 ± 13	–	–
O=C(NC1CCCCCC1)c1nc2ccc(OCCCCNC3CCCCCC3)cc2s1 [Compound 3k, N-Cycloheptyl-6-(4-(cycloheptylamino)butoxy)benzo[d]thiazole-2-carboxamide]	> 10	9.7 ± 4.91	39 ± 8.9	14.2 ± 11.7	61.5 ± 8.9	–	–
O=C(NCC1CCCCC1)c1nc2ccc(OCCCCNCC3CCCCC3)cc2s1 [Compound 3l, N-(Cyclohexylmethyl)-6-(4-((cyclohexylmethyl)amino)butoxy)benzo[d]thiazole-2-carboxamide]	> 10	16.7 ± 7.79	57.3 ± 12.7	14.7 ± 8.5	49.7 ± 41	–	–
O=C(NC1CC1)c1nc2ccc(OCCCCNC3CC3)cc2s1 [Compound 3m, N-Cyclopropyl-6-(4-(cyclopropylamino)butoxy)benzo[d]thiazole-2-carboxamide]	> 10	13.2 ± 8.07	67.8 ± 2.5	27 ± 10.6	53.6 ± 11.1	–	–
O=C(NC1CCCCCC1)c1nc2ccc(OCCCCCNC3CCCCCC3)cc2s1 [Compound 3p, N-Cycloheptyl-6-((5-(cycloheptylamino)pentyl)oxy)benzo[d]thiazole-2-carboxamide]	> 10	9.5 ± 3.58	34 ± 7.5	17.5 ± 8.4	58.4 ± 8.3	–	–
O=C(NCC1CCCCC1)c1nc2ccc(OCCCCCNCC3CCCCC3)cc2s1 [Compound 3q, N-(Cyclohexylmethyl)-6-((5-((cyclohexylmethyl)amino)pentyl)oxy)benzo[d]thiazole-2-carboxamide]	> 10	22.2 ± 5.5	–	40.6 ± 8.2	49.1 ± 22.8	> 3	–
O=C(NC1CC1)c1nc2ccc(OCCCCCNC3CC3)cc2s1 [Compound 3r, N-Cyclopropyl-6-((5-(cyclopropylamino)pentyl)oxy)benzo[d]thiazole-2-carboxamide]	> 10	14.8 ± 6.73	38.8 ± 9.7	23.7 ± 12.7	51.6 ± 15.8	–	–
CC1CC(C)CN(CCCOc2ccc3nc(C(=O)N4CC(C)CC(C)C4)sc3c2)C1 (stereo not shown) [Compound 4c, (3,5-Dimethylpiperidin-1-yl)(6-(3-(3,5-dimethylpiperidin-1-yl)propoxy)benzo[d]thiazol-2-yl)methanone]	> 10	6.9 ± 1.67	–	–	–	0.34	26.8 ± 31
O=C(NCCc1ccccc1)c1nc2ccc(OCCCNCCc3ccccc3)cc2s1 [Compound 4d, N-Phenethyl-6-(3-(phenethylamino)propoxy)benzo[d]thiazole-2-carboxamide]	> 10	5.2 ± 2.36	–	–	–	> 1	10.9 ± 37.1
O=C(c1nc2ccc(OCCCN3CCc4ccccc4C3)cc2s1)N1CCc2ccccc2C1 [Compound 4e, (3,4-Dihydroisoquinolin-2(1H)-yl)(6-(3-(3,4-dihydroisoquinolin-2(1H)-yl)propoxy)benzo[d]thiazol-2-yl)methanone]	> 10	6.2 ± 3.15	–	–	–	0.34	9.7 ± 23
CCN1CCN(CCCOc2ccc3nc(C(=O)N4CCN(CC)CC4)sc3c2)CC1 [Compound 4f, (4-Ethylpiperazin-1-yl)(6-(3-(4-ethylpiperazin-1-yl)propoxy)benzo[d]thiazol-2-yl)methanone]	> 10	8.2 ± 1.64	–	–	–	0.43	3 ± 36
CN1CCN(CCCOc2ccc3nc(C(=O)N4CCN(C)CC4)sc3c2)CC1 [Compound 4g, (4-Methylpiperazin-1-yl)(6-(3-(4-methylpiperazin-1-yl)propoxy)benzo[d]thiazol-2-yl)methanone]	> 10	7.7 ± 1.87	–	–	–	> 1	4.8 ± 37.7
CC1CN(CCCOc2ccc3nc(C(=O)N4CCNC(C)C4)sc3c2)CCN1 (stereo not shown) [Compound 4h, (3-Methylpiperazin-1-yl)(6-(3-(3-methylpiperazin-1-yl)propoxy)benzo[d]thiazol-2-yl)methanone]	> 10	8.3 ± 1.02	–	–	–	0.47	18.4 ± 27
O=C(c1nc2ccc(OCCCN3CCN(CCO)CC3)cc2s1)N1CCN(CCO)CC1 [Compound 4i, (4-(2-Hydroxyethyl)piperazin-1-yl)(6-(3-(4-(2-hydroxyethyl)piperazin-1-yl)propoxy)benzo[d]thiazol-2-yl)methanone]	> 10	7.3 ± 2.77	–	–	–	0.12	22.5 ± 27.4
O=C(NCc1ccccc1)c1nc2ccc(OCCCNCc3ccccc3)cc2s1 [Compound 4j, N-Benzyl-6-(3-(benzylamino)propoxy)benzo[d]thiazole-2-carboxamide]	> 10	20.3 ± 3.55	–	–	–	0.64	27 ± 39.4
CC1CCN(CCCOc2ccc3nc(C(=O)N4CCC(C)CC4)sc3c2)CC1 [Compound 4l, (4-Methylpiperidin-1-yl)(6-(3-(4-methylpiperidin-1-yl)propoxy)benzo[d]thiazol-2-yl)methanone]	> 10	8.4 ± 0.51	–	–	–	0.43	26.8 ± 26.3
CC(=O)N1CCN(CCCOc2ccc3nc(C(=O)N4CCN(C(C)=O)C(C)C4)sc3c2)CC1C (stereo not shown) [Compound 4m, 1-(4-(6-(3-(4-Acetyl-3-methylpiperazin-1-yl)propoxy)benzo[d]thiazole-2-carbonyl)-2-methylpiperazin-1-yl)ethan-1-one]	> 10	2.4 ± 2.06	–	–	–	0.4	27 ± 27.6
